The record followed here is patent US7041785B1, “B1-bradykinin receptor antagonists and use thereof” (Université de Sherbrooke, priority 1996, dated 2006).

Series [1] concerns the target T1, angiotensin-converting enzyme (ACE) from rabbit lungs (Oryctolagus cuniculus, UniProt P12822).
T1 sequence (P12822 34-1310): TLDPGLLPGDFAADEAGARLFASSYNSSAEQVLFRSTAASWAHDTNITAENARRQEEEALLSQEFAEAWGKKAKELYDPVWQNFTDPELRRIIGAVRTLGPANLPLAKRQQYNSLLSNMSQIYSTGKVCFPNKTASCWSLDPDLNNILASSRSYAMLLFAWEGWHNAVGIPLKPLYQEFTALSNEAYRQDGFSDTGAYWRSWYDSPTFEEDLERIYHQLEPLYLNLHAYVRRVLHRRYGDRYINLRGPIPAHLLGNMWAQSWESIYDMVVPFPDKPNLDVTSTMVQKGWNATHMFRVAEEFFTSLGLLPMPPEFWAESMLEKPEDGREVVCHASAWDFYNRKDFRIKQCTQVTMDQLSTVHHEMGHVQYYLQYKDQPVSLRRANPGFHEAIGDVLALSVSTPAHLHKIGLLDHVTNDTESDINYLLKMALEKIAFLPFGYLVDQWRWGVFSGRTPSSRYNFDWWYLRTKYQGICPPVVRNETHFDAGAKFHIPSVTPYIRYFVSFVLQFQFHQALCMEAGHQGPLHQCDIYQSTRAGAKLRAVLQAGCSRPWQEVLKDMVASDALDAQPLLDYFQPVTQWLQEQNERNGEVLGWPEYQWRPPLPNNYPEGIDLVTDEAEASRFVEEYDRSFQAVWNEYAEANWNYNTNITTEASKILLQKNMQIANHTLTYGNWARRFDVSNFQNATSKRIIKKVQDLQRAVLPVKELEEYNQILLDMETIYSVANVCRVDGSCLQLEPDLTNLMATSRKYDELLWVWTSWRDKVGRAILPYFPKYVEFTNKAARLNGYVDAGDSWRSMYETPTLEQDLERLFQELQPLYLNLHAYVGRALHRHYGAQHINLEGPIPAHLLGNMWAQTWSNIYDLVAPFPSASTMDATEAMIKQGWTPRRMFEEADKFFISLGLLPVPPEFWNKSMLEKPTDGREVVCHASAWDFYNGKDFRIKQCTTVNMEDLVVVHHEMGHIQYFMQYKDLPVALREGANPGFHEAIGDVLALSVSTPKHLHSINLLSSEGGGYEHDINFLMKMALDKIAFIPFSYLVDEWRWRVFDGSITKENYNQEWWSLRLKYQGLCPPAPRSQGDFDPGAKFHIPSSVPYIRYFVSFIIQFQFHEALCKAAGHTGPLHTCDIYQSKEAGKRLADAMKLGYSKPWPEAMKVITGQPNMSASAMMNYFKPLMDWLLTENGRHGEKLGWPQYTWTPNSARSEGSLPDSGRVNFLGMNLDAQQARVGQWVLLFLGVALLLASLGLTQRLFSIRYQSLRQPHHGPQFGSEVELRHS
The experiment in a line: Metabolic degradation by purified angiotensin-converting enzyme, HPLC analysis. It counts as in vitro ADME. Details: purified angiotensin-converting enzyme (ACE) from rabbit lungs; purchased Sigma, St-Louis, Mo; host or cells: purified from rabbit lungs. As to the method: The metabolic stability of various kinin-related peptides was evaluated by incubating the peptide in the presence of purified angiotensin-converting enzyme (ACE) from rabbit lungs (purchased from Sigma, St-Louis, Mo.) dissolved in phosphate buffered saline (PBS) (50 mmol/L, pH 7.5 containing 300 mmoL/L NaCl); the final concentration of enzyme was 45 μg/mL. The experimental protocol for the measurement of ACE activity has been described elsewhere^15,16. Briefly, 200 μmol/L of peptides (40 μL) were placed in a PBS buffer and incubated for 5 min at 37EC before adding 8.5 μL of ACE (total volume of the reaction medium; 190 μL). Samples were withdrawn at 30 min intervals, immersed in boiling water for 5 min, then cooled on ice and centrifuged (5 min) before proceeding to analysis of peptides by high pressure liquid chromatography (HPLC). Results of ACE metabolism are expressed in percent of kinin degradation following the incubation (30 min) of kinin substrates with the enzyme.
Pure peptides and metabolic products were analysed by reverse-phas HPLC on a C18 μBondapak column (4.6 mm×25 cm) (Waters) of 10-μm particle size. The peptides and their fragments were eluted at the rate of 2.0 mL/min. with a linear gradient ranging from 5 to 65% of acetonitrile/TFA 0.05%/water over 20 min. at room temperature. The elution positions of these peptides were determined by following the absorbance at 214 nm. For each assay, 50 μL of the reaction medium (treated or not with ACE) were extracted and injected into the column. Concentrations of the peaks products, different from the peaks of the peptide substrate, were estimated using a computer software program (Baseline 810; Waters) that controlled also all the chromatography operations. Isolated metabolites and substrates were collected and identified by Electrospray mass spectrometry (positive mode).

The subject of series [2] is T2, angiotensin-converting enzyme (ACE).
T2 construct: purified angiotensin-converting enzyme (ACE) from rabbit lungs; purchased Sigma, St-Louis, Mo; host or cells: purified from rabbit lungs
Described as above. It counts as in vitro ADME, rabbit. As to conditions: rabbit, isolated enzyme ace, pH 7.5. In a few lines:
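Purified rabbit lung ACE (45 μg/mL final) in PBS (50 mmol/L, pH 7.5, 300 mmol/L NaCl) was incubated with peptides at 37 °C; peptides were pre-incubated 5 min before enzyme addition and samples were boiled to stop the reaction. Percent kinin degradation after 30 min was quantified by C18 reverse-phase HPLC at 214 nm, with metabolites identified by electrospray MS.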

Molecules are shown by their SMILES. Non-standard residues stand in square brackets, D forms with d. Residues, ends and D or L forms follow the SMILES beside them. Tyr(3,5-I2) = N[C@@H](Cc1cc(I)c(O)c(I)c1)C(=O)O; d2Nal = N[C@H](Cc1ccc2ccccc2c1)C(=O)O; Ahx = NCCCCCC(=O)O; Sar = CNCC(=O)O

Turning to `CNCC(=O)N[C@@H](Cc1ccc(O)cc1)C(=O)NCCCCCC(=O)N[C@@H](CCCCN)C(=O)N[C@@H](CCCNC(=N)N)C(=O)N1CCC[C@H]1C(=O)N1CCC[C@H]1C(=O)NCC(=O)N[C@@H](Cc1ccccc1)C(=O)N[C@@H](CO)C(=O)N1CCC[C@H]1C(=O)N[C@@H](CC(C)C)C(=O)O` [Compound 28, SarTyrεAhxLys(Leu^8)desArg^9BK], in series [1], the “Less susceptible to ACE proteolytic degradation, relative to Lys(Leu8)desArgBK” value is 2-5 times. In series [2], this compound had a metabolised at 0.5 h, 42.1 μmol/L of 34 ± 3%.
For `CC[C@H](C)[C@H](NC(=O)[C@@H](Cc1ccc2ccccc2c1)NC(=O)[C@H](CO)NC(=O)[C@H](Cc1ccccc1)NC(=O)CNC(=O)[C@@H]1CCCN1C(=O)[C@@H]1CCCN1C(=O)[C@H](CCCNC(=N)N)NC(=O)[C@H](CCCCN)NC(=O)CCCCCNC(=O)[C@H](Cc1ccc(O)cc1)NC(=O)CNC)C(=O)O` [Compound 29, SarTyrεAhxLys(D-βNal^7, Ile^8)desArg^9BK] (H-[Sar]Y[Ahx]KRPPGFS[d2Nal]I-OH; N-terminus and C-terminus assumed), in that order: 2-5 times and 15 ± 1%.
The corresponding values for `CC[C@H](C)[C@H](NC(=O)[C@@H](Cc1ccc2ccccc2c1)NC(=O)[C@H](CO)NC(=O)[C@H](Cc1ccccc1)NC(=O)CNC(=O)[C@@H]1CCCN1C(=O)[C@@H]1CCCN1C(=O)[C@H](CCCNC(=N)N)NC(=O)[C@H](CCCCN)NC(=O)CCCCCNC(=O)[C@H](Cc1cc(I)c(O)c(I)c1)NC(=O)CNC)C(=O)O` [Compound 30, SarTyr(3,5-I)εAhxLys(D-βNal^7, Ile^8)desArg^9BK] (H-[Sar][Tyr(3,5-I2)][Ahx]KRPPGFS[d2Nal]I-OH; N-terminus and C-terminus assumed) are 2-5 times and 13 ± 1%.
